# Results published in US7192591B2, “Pharmaceutical composition comprising an extract of Elfvingia applanata for the prevention and the treatment of diabetes and diabetic complications” (priority 2002, dated 2007).
# What was measured:
# STZ-diabetic rats [1] = experiment: Plasma glucose content in STZ-diabetic rats after 2 weeks of oral dosing; assay type: in vivo, Sprague-Dawley (SD) rats; conditions: 200 mg/kg/day intragastric
# Protocol: All experiments were performed on Sprague-Dawley (SD) rats aged 10 weeks, weighed 200-250 g and purchased from the Seoul national university. The animals were acclimatized for 1-2 weeks before being used for the experiments. Standard pelleted diet and water were given ad libitum. Animals were maintained under constant 12 hours light and dark cycle and an environmental temperature ranging from 21 to 23° C. Diabetes mellitus was induced in male SD rats, weighing 220-250 g, by a single intraperitoneal injection of strptozotocin (Sigma chemical CO., St. Louis, Mo., USA) dissolved in phosphate buffered saline acidified to pH 4.5 with 0.05 M citric acid (66 mg/kg body wt). Control rats were injected with the vehicle only. The animals were fed standard Lab. Chows and water ad. Lib. throughout the experiments. Two weeks later, the diabetes-induced rats were used in following experiments. […] extracts were suspended in saline containing 0.5% carboxymethyl cellulose. The animals were then sacrificed under ether anesthesia and their blood samples were collected. Plasma glucose levels were determined by using a commercial kit.
# STZ-diabetic rats [2] = experiment: Sorbitol accumulation in red blood cell, lenses and sciatic nerves of STZ-diabetic rats; assay type: in vivo, SD rats; conditions: 2 weeks
# Protocol: Diabetes mellitus was induced in male SD rats, weighing 220-250 g, by a single intraperitoneal injection of strptozotocin (Sigma chemical CO., St. Louis, Mo., USA) dissolved in phosphate buffered saline acidified to pH 4.5 with 0.05 M citric acid (66 mg/kg body wt). Control rats were injected with the vehicle only. The animals were fed standard Lab. Chows and water ad. Lib. throughout the experiments. Two weeks later, the diabetes-induced rats were used in following experiments. […] The extract was suspended in saline containing 0.5% carboxymethyl cellulose. The animals were then sacrificed under ether anesthesia. The contents of sorbitol in the red blood cell, sciatic nerves, and lenses were determined enzymatically. Sorbitol was measured by a modification of the enzymatic assay procedure described in the literature (Clements, R. S. et al.; Science, 166(908), pp1007-8, 1969). 0.5 ml of protein-free filtrate of tissues was added to a reaction mixture consisting of 1.0 ml of 0.05 M glycine buffer adjusted to pH 9.4 containing 0.2 mM nicotinamide adenine dinucleotide (NAD) and 0.64 U of sorbitol dehydrogenase. Blanks untreated with the filtrate, NAD, or sorbitol dehydrogenase, were routinely run simultaneously. The relative fluorescence due to NADH was measured with an excitation wavelength of 366 nm and an emission wavelength of 452 nm. Epalrestat used in the present invention is a conventional therapeutic drug for diabetic complications.
# [3] = molecular target: T1, rat lenses aldose reductase (Rattus norvegicus, UniProt P07943); experiment: Rat lens aldose reductase inhibition (NADPH decrease at 340 nm, DL-glyceraldehyde substrate); assay type: biochemical, Sprague-Dawley rats
# T1 construct: The supernatant fraction of the rat lens homogenate was prepared according to the procedure described in the literature; from tissue; host or cells: lenses of Sprague-Dawley rats
# Protocol: Crude aldose reductase was prepared as follows: rat lenses were removed from Sprague-Dawley rats weighing 250˜280 g and frozen until use. […] Partially purified enzyme having its a specific activity of 6.5 U/mg was routinely used to test enzyme inhibition. The partially purified material was separated into 1.0 ml of aliquots and stored at −40° C.
# Each 1.0 ml of cuvette containing equal units of enzyme, 0.1M sodium phosphate buffer (pH 6.2), 0.3 mM NADPH with or without 10 mM substrate and inhibitor was prepared.
# normal rats = experiment: Oral glucose tolerance test in normal rats; assay type: in vivo, SD rats; conditions: extracts 300 mg/kg
# Protocol: Prior to an oral glucose tolerance test, rats were fasted for 16 hours. And then saline for control group, 250 mg/kg of metformin, one of the biguanides drug for comparison group and each 300 mg/kg of Elfvingia applanata extracts, respectively, was orally administered to each group consisting of 10 rats. Thirty minutes later, 3 g/kg of glucose was orally administered to each rat with a feeding syringe. Blood samples were collected from carotid artery at (just before the oral administration of glucose), 60, 120, and 180 mins after glucose load for glucose assay.
compound,measurement,setting,value
CC(/C=C1\SC(=S)N(CC(=O)O)C1=O)=C\c1ccccc1 [Epalrestat],Plasma glucose,STZ-diabetic rats [1],3.9 ± 0.2 g/L
same,Inhibition (%) of plasma glucose,STZ-diabetic rats [1]; vs control,31.6%
same,Sorbitol in the lenses,"STZ-diabetic rats [2]; lenses, 200 mg/kg/day intragastric",0.38 ± 0.05 nmol/mg dry wt.
same,Inhibition (%) of sorbitol accumulation in the lenses,"STZ-diabetic rats [2]; lenses, 200 mg/kg/day",52.5%
same,Sorbitol in the red blood cell,"STZ-diabetic rats [2]; red blood cell, 200 mg/kg/day intragastric",108.7 ± 11.6 nmol/g Hg
same,Inhibition (%) of sorbitol accumulation in the red blood cell,"STZ-diabetic rats [2]; red blood cell, 200 mg/kg/day",75.0%
same,Sorbitol in the sciatic nerves,"STZ-diabetic rats [2]; sciatic nerves, 200 mg/kg/day intragastric",4.3 ± 0.5 nmol/mg dry wt.
same,Inhibition (%) of sorbitol accumulation in the sciatic nerves,"STZ-diabetic rats [2]; sciatic nerves, 200 mg/kg/day",58.2%
same,inhibition at 0.001 µg/mL,[3]; concentration 0.001 μg/ml,35%
same,inhibition at 0.01 µg/mL,[3]; concentration 0.01 μg/ml,60.2%
same,inhibition at 0.1 µg/mL,[3]; concentration 0.1 μg/ml,100%
"CN(C)C(=N)N=C(N)N [Metformin, metformin]","Glucose, 1 hr","normal rats; 1 hr after 3 g/kg oral glucose load, metformin 250 mg/kg oral",140.1 ± 7.0 mg/dL
same,"Glucose, 2hr","normal rats; 2 hr after 3 g/kg oral glucose load, metformin 250 mg/kg oral",122.8 ± 1.4 mg/dL
same,"Glucose, 3hr","normal rats; 3 hr after 3 g/kg oral glucose load, metformin 250 mg/kg oral",139.7 ± 4.5 mg/dL
same,"Glucose, 0 hr","normal rats; just before 3 g/kg oral glucose load, metformin 250 mg/kg oral 30 min earlier",54.5 ± 2.2 mg/dL
"O=C(O)CC1(CC(=O)O)CCCC1 [TMG, TetraMethylene Glutaric acid]",Inhibition (%) of aldose reductase,[3]; concentration 0.1 μg/ml,40.6%
same,Inhibition (%) of aldose reductase,[3]; concentration 1 μg/ml,51.3%
same,Inhibition (%) of aldose reductase,[3]; concentration 10 μg/ml,76.4%
same,IC50,"[3]; rat lens enzyme, pH 6.2, unit (μM) printed beside the value",0.46 µM
